Where “and” joins values, the source holds several entries; their conditions need not be identical. Equal values may be shown once.
How the values were obtained:
[1] = In vitro release kinetics of trans-resveratrol formulation (USP dissolution apparatus); assay type: physicochemical; conditions: pH 6.5 and 2, FIG. 2
Experimental: Briefly, a 50 mg of RF-20 was dispersed in a 10 mL solution of appropriate pH and kept under constant stirring at 37±0.5° C. […] The amount of resveratrol content in the solution was determined by HPLC, with the help of a calibration curve. The experiment was performed in triplicate and the mean cumulative percentage of released resveratrol was calculated and plotted against time to follow the release kinetics.

[2] = Pharmacokinetics study of resveratrol, randomized double-blinded crossover, capsules and sachets; assay type: in vivo, human; conditions: for Tmax: human, plasma, read-out: Free Resveratrol Tmax
Experimental: The bioavailability study in human subjects was carried out in two phases. In the first phase, identical hard shell gelatin capsules of either the trans-resveratrol powder formulation obtained in example 1 (RF-20) or unformulated resveratrol (U-tRES) containing 80 mg of trans-resveratrol were provided. […] The unformulated capsule contained 80±5 mg of trans-resveratrol with 98.2% purity isolated from Japanese Knotweed (U-tRES) by an ethanol/water extraction process and about 300 mg of microcrystalline cellulose as an excipient. In the second phase, the same dose of either the trans-resveratrol powder formulation or the unformulated resveratrol was administered in identical stick packs, each weighing about 3 g. Maltodextrin was used as an additive to make up the sachet packs to 3 g and the participants were asked to drink one sachet with about 240 mL of water. The double-blinded, placebo-controlled, randomized pharmacokinetic study was conducted using both capsules and sachets, to investigate the influence of delivery form on the relative bioavailability of trans-resveratrol from RF-20 and U-tRES. Each dose of either the resveratrol powder formulation or the unformulated resveratrol delivered 80±5 mg of trans-resveratrol. […] The blood samples were analysed by tandem mass spectrometry using QTRAP technology to detect, confirm and quantify ‘free’ resveratrol content in biomatrices.

[3] = Pharmacokinetics of fisetin powder formulation in healthy human subjects; assay type: in vivo; conditions: human plasma
Experimental: The bioavailability of the fisetin formulation was evaluated in healthy human subjects. It has been evaluated in a single dose, randomized, comparative, double-blinded crossover design was adopted to evaluate the difference in the bioavailability and pharmacokinetic parameters (Cmax, AUC, Tmax, and t½) of free (unconjugated) fisetin and geraldol following the oral administration of a fisetin formulation obtained in example 6 (FF-20) and unformulated fisetin (UF). The participants were provided with a capsule contained 500±25 mg of UF or FF-20. Around 50 mg of microcrystalline cellulose was present in each capsule as a flow-improving excipient. Following administration, blood samples (2 mL) were collected 5 min (t0) prior to oral dosing and subsequently at 0.5, 1, 2, 3, 5, 8, and 12 h after oral ingestion of UF or FF-20, using an indwelling venous cannula. Participants were provided with a standardized breakfast, lunch, snack, and dinner respectively at 1, 4, 8, and 12 h after dosing. Plasma was separated by centrifugation at 11,950×g for 10 min at 4° C. and stored for a maximum of two days at −20° C. for analysis. Fisetin and geraldol in plasma samples were extracted and subjected to UPLC-ESI-MS/MS analyses.

[4] = In vitro release kinetics of calcium ascorbate formulation; assay type: physicochemical; conditions: stomach and intestinal pH conditions, FIG. 5
Experimental: The in vitro release of ascorbic acid from the calcium ascorbate powder formulation was determined in water containing 1.6 mmol of the disodium salt of EDTA (ethylenediamine tetra acetic acid) at pH 2.0 and 6.8 using 0.1 M HCl and phosphate buffer respectively. 500 mg of calcium ascorbate powder formulation was mixed with 500 mL of EDTA solution to obtain the calcium ascorbate solution. The pH of the calcium ascorbate solution was adjusted and agitated at 100 rpm. About 1 mL of the solution was carefully withdrawn at regular intervals of 0, 1, 2, 4, 6, and 8 h and made up to 100 mL with water. The ascorbate content was then analysed by HPLC method. Analysis was performed in triplicate and the mean cumulative percentage of released ascorbate was calculated and plotted against time to study the in vitro release kinetics of CAAS from the fenugreek galactomannan matrix.

[5] = Pharmacokinetics of calcium ascorbate formulation in healthy volunteers; assay type: in vivo, human; conditions: single oral dose of 1000 mg
Excerpt: The relative bioavailability of the calcium ascorbate formulation obtained in Example 5 (FC+) with respect to the unformulated CAAS (UF-CAAS) powder with >98% purity was investigated in healthy volunteers.
The study was designed as a randomized, double-blinded, single dose study on healthy volunteers. Healthy volunteers (males and females) (n ¼14) aged 18 to 65 years having BMI between 18-25 kgm^−2 were enrolled for the study. Those who were having a history of gut disorders such as irritable bowel syndrome, ulcerative colitis, gastro-oesophageal reflux.
Selected participants were randomized into one of the three treatment arms consisting of three single dose treatments, with either formulated (tablets and capsules) or unformulated (UFCAAS) tablets.
Tablets and hard-shell two-piece hypromellose capsules of both FC+ and UF-CAAS were prepared in such a way that each tablet weighs about 1000±25 mg and each capsule contains 500±25 mg with similar content of CAAS. The study participants were orally administered with a single dose of 1000 mg tablet or capsule as per the study protocol, along with 200±10 mL of normal drinking water.
The quantification of calcium ascorbate in plasma was carried out by a validated HPLC method.

[6] = human plasma, capsule, 80 mg trans-resveratrol per dose
[7] = human plasma, sachet, 80 mg trans-resveratrol per dose

With `Oc1ccc(/C=C/c2cc(O)cc(O)c2)cc1` [U-tRES, trans-resveratrol] the “solubility in release medium” value [1] was “insoluble”, the Tmax ([2]; both sexes, oral, 80 mg, human plasma, capsule, 80 mg trans-resveratrol per dose) was 1.07 ± 0.26 h and the Tmax ([2]; both sexes, oral, 80 mg, human plasma, sachet, 80 mg trans-resveratrol per dose) was 1.21 ± 0.42 h. For the same compound, the half-life ([2]; both sexes, oral, human plasma, sachet, 80 mg trans-resveratrol per dose, read-out: Free Resveratrol t1/2 (converted)) was 1.58 ± 0.65 h, the “time after which plasma levels were undetectable” value ([2]; free resveratrol, sachet) was 3 h and the “free resveratrol AUC0-24 h” value ([2]; human plasma, capsule, 80 mg) was 32.05 ± 9.97 ng·h/mL. The “Free Resveratrol AUC0-24” value [2, 6] was 32.05 ng·h/mL, the “Free Resveratrol Cmax” value [2, 6] was 16.34 ng/mL and the “Free Resveratrol t1/2” value [2, 6] was 1.58 h. For the same compound, the “Free Resveratrol Cmax” value ([2]; human plasma, capsule, 80 mg trans-resveratrol per dose, listed as UtRES) was 16.34 ± 5.67 ng/mL, the “Free Resveratrol AUC0-24” value [2, 7] was 31.93 ng·h/mL and the “Free Resveratrol Cmax” value [2, 7] was 15.07 ± 5.10 ng/mL and 15.07 ng/mL. The “tolerability (side effects or adverse events)” value ([2]; n=16, both phases, 80±5 mg trans-resveratrol per dose) was “without any significant side effects or adverse events”.

With `O=c1c(O)c(-c2ccc(O)c(O)c2)oc2cc(O)ccc12` [UF, fisetin] the Tmax ([3]; 500 mg, single oral dose) was 0.88 h, the Cmax ([3]; 500 mg, single oral dose, normalized for the higher fisetin intake in UF) was 9.97 ng/mL and the AUC(0-t) ([3]; 500 mg, single oral dose, normalized for the higher fisetin intake in UF, read-out: Fisetin AUC0-12) was 12.7 ng·h/mL. For the same compound, the half-life ([3]; 500 mg, single oral dose, read-out: Fisetin t1/2 (converted)) was 1.14 h and the “time after dosing up to which fisetin levels were quantifiable” value [3] was 2 h.

In the case of calcium ascorbate [UF-CAAS], the “in vitro release behaviour” value [4] is reported as “sustained release”, the “AUC (plasma ascorbate)” value [5] is reported as 311.4 ± 63.87^ μM · h/mL and the “MRT (plasma ascorbate)” value [5] is reported as 22.67 ± 2.02 h. For the same compound, the “T1/2 (plasma ascorbate)” value [5] was 3.6 h, the “Tmax (plasma ascorbate)” value [5] was 1 h and the Cmax ([5]; read-out: Cmax (plasma ascorbate)) was 51.7 ± 21 µM.

Source: US20240261412A1, “NUTRACEUTICAL COMPOSITION FOR DELIVERY OF HYDROPHILIC AND HYDROPHOBIC BIOACTIVE SUBSTANCES” (AKAY NATURAL INGREDIENTS PRIVATE LIMITED, priority 2021, published 2024)
